Measured values reported in patent US20220274954A1, “SUBSTITUTED N-PHENYL-N-AMINOUARCILS AND SALTS THEREOF AND USE THEREOF AS HERBICIDAL AGENTS” (Bayer Aktiengesellschaft, priority 2019, published 2022).

Columns and labels:
Type in all cases: in vivo
Abutilon theophrasti = assay: Post-emergence herbicidal action; conditions: for pest or weed control at 5 g/ha / pest or weed control at 20 g/ha: Abutilon theophrasti, 504 h, read-out: Abutilon theophrasti (efficacy in %)
Method: (§1) Seeds of monocotyledonous and dicotyledonous weeds and crop plants were placed in sandy loam in plastic or wood-fiber pots, covered with soil and cultivated in a greenhouse under controlled growth conditions. 2 to 3 weeks after sowing, the test plants were treated at the one-leaf stage. The compounds of the invention, formulated in the form of wettable powders (WP) or as emulsion concentrates (EC), were then sprayed onto the green parts of the plants as aqueous suspension or emulsion with addition of 0.5% additive at a water application rate of […] (converted). After the test plants had been kept in the greenhouse under optimum growth conditions for about 3 weeks, the activity of the preparations was rated visually in comparison to untreated controls. For example, 100% activity=the plants have died, 0% activity=like control plants. Tables A1 to A14 below show the effects of selected compounds of the general formula (I) according to Tables I.1 to I.34 on various harmful plants and at an application rate corresponding to 20 g/ha and less, which were obtained by the experimental procedure mentioned above.

Amaranthus retroflexus = assay: Post-emergence herbicidal action; conditions: for pest or weed control at 5 g/ha / pest or weed control at 20 g/ha: Amaranthus retroflexus, 504 h, read-out: Amaranthus retroflexus (efficacy in %)
Method: as §1

Digitaria sanguinalis = assay: Post-emergence herbicidal action; conditions: 504 h, application rate 20 g/ha, read-out: Digitaria sanguinalis (efficacy in %)
Method: as §1

Pharbitis purpurea = assay: Post-emergence herbicidal action
Method: as §1

Polygonum convolvulus = assay: Post-emergence herbicidal action; conditions: Fallopia convolvulus, 504 h, application rate 20 g/ha, read-out: Polygonum convolvulus (efficacy in %)
Method: as §1

Setaria viridis = assay: Post-emergence herbicidal action; conditions: 504 h, read-out: Setaria viridis (efficacy in %)
Method: as §1

Veronica persica = assay: Post-emergence herbicidal action; conditions: for pest or weed control at 5 g/ha / pest or weed control at 20 g/ha: Veronica persica, 504 h, read-out: Veronica persica (efficacy in %)
Method: as §1

Viola tricolor = assay: Post-emergence herbicidal action; conditions: for pest or weed control at 5 g/ha / pest or weed control at 20 g/ha: Viola tricolor, 504 h, read-out: Viola tricolor (efficacy in %)
Method: as §1

Oryza sativa = assay: Post-emergence crop plant compatibility
Method: as §1, with “plants.” for “plants. Tables A1 to A14 below show the effects of selected compounds of the general formula (I) according to Tables I.1 to I.34 on various harmful plants and at an application rate corresponding to 20 g/ha and less, which were obtained by the experimental procedure mentioned above.”
(§2) Here, the observed effects on selected crop plants are stated in comparison to the untreated controls (values in %).

Triticum aestivum = assay: Post-emergence crop plant compatibility
Method: as §1, with “plants.” for “plants. Tables A1 to A14 below show the effects of selected compounds of the general formula (I) according to Tables I.1 to I.34 on various harmful plants and at an application rate corresponding to 20 g/ha and less, which were obtained by the experimental procedure mentioned above.”
as §2

Zea mays = assay: Post-emergence crop plant compatibility; conditions: application rate 5 g/ha
Method: as §1, with “plants.” for “plants. Tables A1 to A14 below show the effects of selected compounds of the general formula (I) according to Tables I.1 to I.34 on various harmful plants and at an application rate corresponding to 20 g/ha and less, which were obtained by the experimental procedure mentioned above.”
as §2

Alopecurus myosuroides = assay: Post-emergence herbicidal action
Method: as §1

Echinochloa crus-galli = assay: Post-emergence herbicidal action
Method: as §1

Matricaria inodora = assay: Post-emergence herbicidal action
Method: as §1

Avena fatua = assay: Post-emergence herbicidal action; conditions: application rate 20 g/ha
Method: as §1

[1] = Ipomoea purpurea, 504 h, application rate 20 g/ha, read-out: Pharbitis purpurea (efficacy in %)

Oryza sativa (efficacy in %) (Oryza sativa; application rate 5 g/ha) [%] | Triticum aestivum (efficacy in %) (Triticum aestivum; application rate 1.25 g/ha) [%] | Triticum aestivum (efficacy in %) (Triticum aestivum; application rate 5 g/ha) [%] | SMILES | pest or weed control at 5 g/ha (Abutilon theophrasti; application rate 5 g/ha) [%] | pest or weed control at 20 g/ha (Abutilon theophrasti; application rate 20 g/ha) [%] | pest or weed control at 5 g/ha (Amaranthus retroflexus; application rate 5 g/ha) [%] | pest or weed control at 20 g/ha (Amaranthus retroflexus; application rate 20 g/ha) [%] | pest or weed control at 20 g/ha (Pharbitis purpurea; [1]) [%] | pest or weed control at 5 g/ha (Veronica persica; application rate 5 g/ha) [%] | pest or weed control at 20 g/ha (Veronica persica; application rate 20 g/ha) [%] | pest or weed control at 5 g/ha (Viola tricolor; application rate 5 g/ha) [%] | pest or weed control at 20 g/ha (Viola tricolor; application rate 20 g/ha) [%] | Abutilon theophrasti (efficacy in %) (Abutilon theophrasti; application rate 5 g/ha) [%] | Abutilon theophrasti (efficacy in %) (Abutilon theophrasti; application rate 20 g/ha) [%] | Alopecurus myosuroides (efficacy in %) (Alopecurus myosuroides; application rate 5 g/ha) [%] | Alopecurus myosuroides (efficacy in %) (Alopecurus myosuroides; application rate 20 g/ha) [%] | Amaranthus retroflexus (efficacy in %) (Amaranthus retroflexus; application rate 5 g/ha) [%] | Amaranthus retroflexus (efficacy in %) (Amaranthus retroflexus; application rate 20 g/ha) [%] | Echinochloa crus-galli (efficacy in %) (Echinochloa crus-galli; application rate 5 g/ha) [%] | Echinochloa crus-galli (efficacy in %) (Echinochloa crus-galli; application rate 20 g/ha) [%] | further results
0 | 0 | 10 | CCCCCOC(=O)COc1ncccc1Sc1cc(-n2c(=O)cc(C(F)(F)F)n(N)c2=O)c(F)cc1Cl [I.1-448, n-Pentyl {[3-({5-[3-amino-2,6-dioxo-4-(trifluoromethyl)-3,6-dihydropyrimidin-1(2H)-yl]-2-chloro-4-fluorophenyl}sulfanyl)pyridin-2-yl]oxy}acetate] | 80 | 80 | 100 | 100 | 100 | 80 | 80 | 100 | 100 |  |  |  |  |  |  |  |  | pest or weed control at 20 g/ha (Digitaria sanguinalis): 100%; pest or weed control at 20 g/ha (Polygonum convolvulus): 100%; pest or weed control at 5 g/ha (Setaria viridis; application rate 5 g/ha): 80%; pest or weed control at 20 g/ha (Setaria viridis; application rate 20 g/ha): 100%; Zea mays (efficacy in %) (Zea mays): 20%
10 | 10 | 20 | CCOC(=O)COc1ncc(F)cc1Sc1cc(-n2c(=O)cc(C(F)(F)F)n(N)c2=O)c(F)cc1Cl [I.31-442] |  |  |  |  |  |  |  |  |  | 100 | 100 | 80 | 90 | 100 | 100 | 90 | 90 | Matricaria inodora (efficacy in %) (Matricaria inodora; application rate 20 g/ha): 100%; Pharbitis purpurea (efficacy in %) (Pharbitis purpurea; application rate 5 g/ha): 80%; Pharbitis purpurea (efficacy in %) (Pharbitis purpurea; application rate 20 g/ha): 100%; Veronica persica (efficacy in %) (Veronica persica; application rate 5 g/ha): 100%; Veronica persica (efficacy in %) (Veronica persica; application rate 20 g/ha): 100%; Viola tricolor (efficacy in %) (Viola tricolor; application rate 5 g/ha): 100%; Viola tricolor (efficacy in %) (Viola tricolor; application rate 20 g/ha): 100%; Oryza sativa (efficacy in %) (Oryza sativa; application rate 1.25 g/ha): 0%
 | 20 |  | Nn1c(C(F)(F)F)cc(=O)n(-c2cc(Sc3cccnc3OCC(=O)OC3COC3)c(Cl)cc2F)c1=O [I.1-115] |  |  |  |  |  |  |  |  |  | 90 | 100 | 80 | 100 | 100 | 100 | 90 | 100 | Matricaria inodora (efficacy in %) (Matricaria inodora; application rate 5 g/ha): 100%; Matricaria inodora (efficacy in %) (Matricaria inodora; application rate 20 g/ha): 100%; Pharbitis purpurea (efficacy in %) (Pharbitis purpurea; application rate 5 g/ha): 100%; Pharbitis purpurea (efficacy in %) (Pharbitis purpurea; application rate 20 g/ha): 100%; Veronica persica (efficacy in %) (Veronica persica; application rate 5 g/ha): 100%; Veronica persica (efficacy in %) (Veronica persica; application rate 20 g/ha): 100%; Viola tricolor (efficacy in %) (Viola tricolor; application rate 5 g/ha): 100%; Viola tricolor (efficacy in %) (Viola tricolor; application rate 20 g/ha): 100%
20 |  |  | COCCOCCOC(=O)COc1ncc(F)cc1Sc1cc(-n2c(=O)cc(C(F)(F)F)n(N)c2=O)c(F)cc1Cl [I.31-23, 2-(2-Methoxyethoxy)ethyl {[3-({5-[3-amino-2,6-dioxo-4-(trifluoromethyl)-3,6-dihydropyrimidin-1(2H)-yl]-2-chloro-4-fluorophenyl}sulfanyl)-5-fluoropyridin-2-yl]oxy}acetate] | 100 | 100 | 100 | 100 | 100 | 100 | 100 | 100 | 100 |  |  |  | 100 |  |  |  |  | Avena fatua (efficacy in %) (Avena fatua): 80%; pest or weed control at 5 g/ha (Echinochloa crus-galli; Echinochloa crus-galli, 504 h, application rate 5 g/ha, read-out: Echinochloa crus-galli (efficacy in %)): 80%; pest or weed control at 20 g/ha (Echinochloa crus-galli; Echinochloa crus-galli, 504 h, application rate 20 g/ha, read-out: Echinochloa crus-galli (efficacy in %)): 100%; pest or weed control at 5 g/ha (Matricaria inodora; Tripleurospermum inodorum, 504 h, application rate 5 g/ha, read-out: Matricaria inodora (efficacy in %)): 100%; pest or weed control at 20 g/ha (Matricaria inodora; Tripleurospermum inodorum, 504 h, application rate 20 g/ha, read-out: Matricaria inodora (efficacy in %)): 100%; pest or weed control at 5 g/ha (Pharbitis purpurea; Ipomoea purpurea, 504 h, application rate 5 g/ha, read-out: Pharbitis purpurea (efficacy in %)): 100%
